Laboratory results: PMC8618441, “From Natural Xanthones to Synthetic C-1 Aminated 3,4-Dioxygenated Xanthones as Optimized Antifouling Agents” (Marine Drugs, 2021)
In brackets after ≈: the same amount, converted by molar mass. Where two headings read alike, the source gives them in different places.

What was measured:
[1] = tested on: Mytilus galloprovincialis plantigrade larvae; settings: cited from earlier work
[2] = tested on: Mytilus galloprovincialis plantigrade larvae; settings: cited from earlier work; remark: listed apart in the source
[3] = tested on: Artemia salina nauplii; settings: cited from earlier work
[4] = tested on: Mytilus galloprovincialis plantigrade larvae; experiment: Mytilus galloprovincialis larvae anti-settlement bioassay; assay type: in vivo; settings: for anti-settlement response versus negative control: screening at 50 μM, Dunnett test p < 0.05; for settlement of mussel larvae: at 50 µM
Method: (§1) For the bioassays, M. galloprovincialis juveniles were collected in intertidal mussel beds during low tides in Memória beach, Matosinhos, Portugal (41°13′59″ N; 8°43′28″ W). Mussel plantigrade larvae (0.5–2 mm) were sorted in a binocular magnifier (Olympus SZX2-ILLT, Tokyo, Japan) and those presenting foot exploring behavior for settlement were selected to the screening bioassays at 50 µM performed in 24-well microplates for 15 h, in the dark at 18 ± 1 °C, according to Almeida et al.. Four well replicates per condition and five competent larvae per well were included. Negative and positive controls were included, namely DMSO (0.1%) and CuSO4 (5 µM) as an efficient antifouling agent. Stock solutions in DMSO (50 mM) were used to prepare test media (50 µM) in filtered seawater (0.1% DMSO). After the exposure period, the anti-settlement bioactivity was determined by the observation of efficiently attached plantigrade larvae considering the existence/absence of produced byssal threads for each test condition.
(§2) Data from the anti-settlement screening were analyzed using a one-way analysis of variance (ANOVA), followed by a Dunnett test against the negative control (p < 0.05). […] Therapeutic ratios (LC50/EC50) were used to evaluate the effectiveness versus toxicity of bioactive compounds. […] The mixed model ANOVA was performed on log10(x + 1)-transformed values from 4 biological replicates, employing the software IBM SPSS Statistics (version 21, SPSS Inc., Chicago, IL, USA).

[5] = tested on: Artemia salina nauplii; experiment: Brine shrimp (Artemia salina) lethality test, ecotoxicity; assay type: in vivo; settings: 48 h; for toxicity to A. salina: lowest concentration tested, 25 μM; for mortality of Artemia salina nauplii: at 50 µM
Method: Ecotoxicity of the most promising xanthones to non-target species was assessed using the brine shrimp (Artemia salina) lethality test standard protocol. Newly hatched nauplii I larvae were used for the exposure to the most promising antifouling compounds at 50 and 25 µM. The bioassay was performed in 96-well microplates with eight replicates per condition and 15–20 nauplii per well, including a positive (K2Cr2O7 at 13.6 µM) and negative control (0.1% DMSO). The percentage of nauplii mortality for each condition was determined at the end of the exposure period (48 h).

[6] = tested on: Mytilus galloprovincialis plantigrade larvae; experiment: Toxicity (LC50, therapeutic ratio) toward mussel plantigrade larvae; assay type: in vivo
Method: as §1, §2

[7] = as above; assay type: in vivo; settings: Mytilus galloprovincialis, in vivo, median lethal dose, mussel plantigrades
Method: as §1, §2

[8] = tested on: Roseobacter litoralis CECT 5395; experiment: Biofilm-forming marine bacteria growth bioassay; assay type: cell-based; settings: for inhibition at 12.5 µM: Roseobacter litoralis, read-out: growth inhibition of R. litoralis
Method: The experimental procedure was performed as previously reported by Almeida et al.. […] Bacterial growth inhibition in the presence of the compounds was determined in quadruplicate at 600 nm using a microplate reader (Biotek Synergy HT, Winooski, VT, USA). Negative and positive controls used were a solution of marine broth with 0.1% DMSO, and a stabilized solution of marine broth with penicillin-streptomycin-neomycin, respectively.

[9] = tested on: Balanus amphitrite larvae; settings: cited from earlier work; for EC50, larval settlement of Balanus amphitrite / toxicity effects on the barnacle larvae: in vivo
[10] = tested on: brine shrimp (Artemia salina); set-up: method as in PMID 23172582; settings: in words; cited from earlier work
[11] = tested on: Escherichia coli; set-up: method as in PMID 23172582; settings: in words; cited from earlier work
[12] = tested on: Staphylococcus aureus; set-up: method as in PMID 23172582; settings: in words; cited from earlier work
[13] = tested on: Colletotrichum lagenarium; set-up: method as in PMID 23172582; settings: in words; cited from earlier work
[14] = Mytilus galloprovincialis, 15 h
[15] = Mytilus galloprovincialis, 15 h, read-out: EC50 (μg.mL^−1)
[16] = Mytilus galloprovincialis, 15 h, concentration that inhibited 50% of larval settlement of mussel plantigrades, 15 h exposure, read-out: EC50
[17] = Mytilus galloprovincialis, 15 h, concentration that inhibited 50% of larval settlement of mussel plantigrades, 15 h exposure, read-out: EC50 (μg.mL^−1)
[18] = other: larvae immersed in test media in filtered seawater
[19] = larval settlement of mussel plantigrades

| Compound | anti-settlement response versus negative control [4] | EC50 [4, 16] [µM] | EC50 [4, 17] [µg/mL] | settlement of mussel larvae ([4]; 15 h) [%] | mortality of Artemia salina nauplii [5] [%] | toxicity to the macrofouling species (mussel larvae) ([6]; in vivo) | LC50 at 15 h [7, 18] [µM] | further results |
| --- | --- | --- | --- | --- | --- | --- | --- | --- |
| O=c1c2ccccc2oc2c(O)c(O)ccc12 [3,4-Dihydroxyxanthone] |  |  |  |  |  |  |  | activity toward the settlement of Mytilus galloprovincialis larvae ([1]; in words): exhibited in vivo activity; toxicity to the macrofouling species (mussel larvae) ([2]; in words): low toxicity; ecotoxicity toward A. salina, mortality [3]: < 10% |
| COc1cc(C)c2c(=O)c3ccccc3oc2c1OC [Compound 1, 3,4-dimethoxy-1-methyl-9H-xanthen-9-one] | highly significant anti-settlement responses |  |  |  |  |  |  | EC50 [4, 14]: 11.8 µM; EC50 [4, 15]: 3.19 µg/mL; toxicity to A. salina [5]: significant toxicity; toxicity to the macrofouling species (mussel larvae) ([6]; in words): low toxicity; LC50 at 15 h [7]: > 100 µM |
| COc1ccc2c(=O)c3c(C)cc(OC)c(OC)c3oc2c1 [Compound 2, 3,4,6-trimethoxy-1-methyl-9H-xanthen-9-one] | highly significant anti-settlement responses |  |  |  |  |  |  | EC50 [4, 14]: 27.2 µM; EC50 [4, 15]: 8.15 µg/mL; toxicity to A. salina [5]: significant toxicity; toxicity to the macrofouling species (mussel larvae) ([6]; in words): low toxicity; LC50 at 15 h [7]: > 100 µM |
| COc1ccc2c(=O)c3c(C)c(Cl)c(OC)c(OC)c3oc2c1 [Compound 3, 2-chloro-3,4,6-trimethoxy-1-methyl-9H-xanthen-9-one] | nullified the significant anti-settlement effect |  |  |  |  |  |  |  |
| COc1ccc2c(=O)c3c(CCl)cc(OC)c(OC)c3oc2c1 [Compound 4, 1-(chloromethyl)-3,4,6-trimethoxy-9H-xanthen-9-one] | highly significant anti-settlement responses | 16.1 | 5.41 | 20 | < 10 | low toxicity | > 100 |  |
| COc1ccc2c(=O)c3c(CBr)cc(OC)c(OC)c3oc2c1 [Compound 5, 1-(bromomethyl)-3,4,6-trimethoxy-9H-xanthen-9-one] |  |  |  | 45 |  |  |  |  |
| COc1cc(C(Br)Br)c2c(=O)c3ccccc3oc2c1OC [Compound 6, 1-(dibromomethyl)-3,4-dimethoxy-9H-xanthen-9-one] | highly significant anti-settlement responses |  |  |  | < 10 |  |  | EC50 [4, 14]: 22.8 µM; EC50 [4, 15]: 9.75 µg/mL; toxicity to the macrofouling species (mussel larvae) ([6]; in words): low toxicity; LC50 at 15 h [7]: > 100 µM; inhibition at 12.5 µM ([8]; CECT5395, 24 h): > 30% |
| COc1cc(CO)c2c(=O)c3ccccc3oc2c1OC [Compound 8, 1-(hydroxymethyl)-3,4-dimethoxy-9H-xanthen-9-one] | highly significant anti-settlement responses | 21.8 | 6.25 | 35 | < 10 | low toxicity | > 100 |  |
| COc1cc(CNCCN2CCOCC2)c2c(=O)c3ccccc3oc2c1OC [Compound 16, 3,4-dimethoxy-1-(((2-morpholinoethyl)amino)methyl)-9H-xanthen-9-one] | highly significant anti-settlement responses | 17.5 | 6.98 | 0 | < 10 | low toxicity | > 100 | antibacterial bioactivity in concentration–response study ([8]; R. litoralis, concentrations between 2 and 32 µM (Figure S1)): not confirmed; inhibition at 12.5 µM ([8]; CECT5395, screening at 12.5 µM, 24 h): > 30% |
| COc1cc(CN2CCN(CCO)CC2)c2c(=O)c3ccccc3oc2c1OC [Compound 19, 1-((4-(2-hydroxyethyl)piperazin-1-yl)methyl)-3,4-dimethoxy-9H-xanthen-9-one] | highly significant anti-settlement responses | 53.9 | 21.5 | 10 | < 10 | low toxicity | > 100 |  |
| COc1cc(CN2CCc3c(N)cccc3C2)c2c(=O)c3ccccc3oc2c1OC [Compound 21, 1-((5-amino-3,4-dihydroisoquinolin-2(1H)-yl)methyl)-3,4-dimethoxy-9H-xanthen-9-one] | highly significant anti-settlement responses | 7.28 | 3.03 | 20 | < 10 | low toxicity | > 100 |  |
| COc1cc(CN2CCCCC2)c2c(=O)c3ccccc3oc2c1OC [Compound 23, 3,4-dimethoxy-1-(piperidin-1-ylmethyl)-9H-xanthen-9-one] | highly significant anti-settlement responses | ~4 | 1.26 | 20 | < 10 | low toxicity | > 100 | EC50 ([4]; concentration that inhibited 50% of larval settlement of mussel plantigrades, 15 h exposure, read-out: EC50): 3.57 µM |
| N#Cc1c(-c2ccc(Cl)cc2)[nH]c(C(F)(F)F)c1Br [ECONEA] |  |  |  |  |  |  |  | EC50 [1, 19]: 4.01 µM; EC50 (μg.mL^−1) [1, 19]: 1.40 µg/mL (≈ 4.01 µM); LC50 ([2]; median lethal dose, mussel plantigrades): 108 µM; mortality of Artemia salina ([3]; at the same concentration range (25-50 µM)): 100% |
| COc1cc2c(c3c(=O)c4c(OC)ccc(O)c4oc13)[C@@H]1C=CO[C@@H]1O2 [methoxysterigmatocystin] |  |  |  |  |  |  |  | EC50, larval settlement of Balanus amphitrite [9]: < 0.125 mg/L; toxicity effects on the barnacle larvae [9]: induced paralyzing effects |
| COC(=O)c1cc(O)cc2oc3c(Cl)c(C)c(Cl)c(O)c3c(=O)c12 [penicilixanthone] |  |  |  |  |  |  |  | EC50, larval settlement of B. amphitrite [9]: 17.1 mg/L |
| COc1cc2c(c3oc4cccc(O)c4c(=O)c13)[C@@H]1C=CO[C@@H]1O2 [sterigmatocystin] |  |  |  |  |  |  |  | EC50, larval settlement of Balanus amphitrite [9]: < 0.125 mg/L; toxicity effects on the barnacle larvae [9]: induced paralyzing effects |
| COC(=O)c1cc(OC)c2c(=O)c3c(O)cc(C)cc3oc2c1 [yicathin B] |  |  |  |  |  |  |  | brine shrimp (Artemia salina) toxicity [10]: weak; antimicrobial activity against Escherichia coli [11]: active |
| COc1cc(C(=O)O)cc2oc3cc(C)cc(O)c3c(=O)c12 [yicathin C] |  |  |  |  |  |  |  | brine shrimp (Artemia salina) toxicity [10]: weak; antimicrobial activity against Staphylococcus aureus [12]: could inhibit; antimicrobial activity against Escherichia coli [11]: could inhibit; antimicrobial activity against Colletotrichum lagenarium [13]: could inhibit |
